In patent US20250353891A1 (MEDIMMUNE LIMITED, priority 2022, published 2025):
Starred links: 1 amine or outer side, 2 acyl side, 3 side chain; linkers in the order of their positions; H or OH if unused. Non-standard residues stand in square brackets, D forms with d. Residues, ends and D or L forms follow the SMILES beside them. Groups on a side chain read outwards from the residue. *: point of attachment. C18 diacid = O=C(O)CCCCCCCCCCCCCCCCC(=O)*; γGlu = O=C(O)[C@H](CCC(=O)[*:2])N[*:1]; αMeF = C[C@](N)(Cc1ccccc1)C(=O)O; Ac4c = NC1(C(=O)O)CCC1; AEEA = NCCOCCOCC(=O)O; Ac3c = NC1(C(=O)O)CC1; Aib = CC(C)(N)C(=O)O

How the values were obtained:
[1] = molecular target: human glucagon receptor (hGCGR) (Homo sapiens, UniProt P47871); assay: cAMP production (HTRF) in CHO cells expressing hGCGR; format: cell-based; design: expressed in transfected cells; conditions: Table 7, peptides modified at position 20; cAMP in CHO hGCGR cells; geometric mean; read-out: hGluc-R EC50
Sequence of human glucagon receptor (hGCGR) (P47871 26-477): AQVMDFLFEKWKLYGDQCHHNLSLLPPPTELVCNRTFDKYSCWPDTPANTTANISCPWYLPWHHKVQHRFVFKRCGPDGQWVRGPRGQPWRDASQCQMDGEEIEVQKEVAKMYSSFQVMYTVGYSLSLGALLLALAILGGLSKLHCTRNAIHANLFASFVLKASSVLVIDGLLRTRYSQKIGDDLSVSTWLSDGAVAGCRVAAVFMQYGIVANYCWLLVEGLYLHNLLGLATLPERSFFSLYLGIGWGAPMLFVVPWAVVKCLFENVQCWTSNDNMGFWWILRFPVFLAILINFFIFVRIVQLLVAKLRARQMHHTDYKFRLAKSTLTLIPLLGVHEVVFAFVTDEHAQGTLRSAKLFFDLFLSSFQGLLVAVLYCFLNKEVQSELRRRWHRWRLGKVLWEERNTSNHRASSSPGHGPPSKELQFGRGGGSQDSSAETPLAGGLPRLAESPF
How it was run: (§1)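 Cells were resuspended in assay buffer at batch-optimized density, typically 1×10^5 cells/mL for hGLP-1R and 2×10^5 cells/mL for hGCGR. After 30 min incubation at room temperature with compound, cAMP was measured by two-step HTRF. EC50 values came from 4-parameter logistic fits of % Delta F.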

[2] = molecular target: human GLP-1 receptor (hGLP-1R) (Homo sapiens, UniProt P43220); assay: cAMP production (HTRF) in CHO cells expressing hGLP-1R; format: cell-based; design: expressed in transfected cells; conditions: for EC50: Table 7, peptides modified at position 20, cAMP in CHO hGLP-1R cells, geometric mean, read-out: hGLP-1R EC50; for % Relative Potency Ratio: Table 7, % GLP-1R activity relative to GLP-1 / % GlucR activity relative to glucagon
Sequence of human GLP-1 receptor (hGLP-1R) (P43220 24-463): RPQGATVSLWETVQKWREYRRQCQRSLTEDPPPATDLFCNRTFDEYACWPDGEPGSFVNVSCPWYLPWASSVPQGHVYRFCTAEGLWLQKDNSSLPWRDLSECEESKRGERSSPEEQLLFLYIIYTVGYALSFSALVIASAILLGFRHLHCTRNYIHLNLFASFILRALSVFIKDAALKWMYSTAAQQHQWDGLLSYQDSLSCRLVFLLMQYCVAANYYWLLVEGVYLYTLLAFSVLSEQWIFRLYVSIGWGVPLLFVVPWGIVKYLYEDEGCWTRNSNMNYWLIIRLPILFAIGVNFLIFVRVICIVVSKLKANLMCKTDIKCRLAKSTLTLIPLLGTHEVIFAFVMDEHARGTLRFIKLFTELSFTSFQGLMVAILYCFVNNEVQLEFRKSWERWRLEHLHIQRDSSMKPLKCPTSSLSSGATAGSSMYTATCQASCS
How it was run: as §1

EC50 [1] [pM] | EC50 [2] [pM] | % Relative Potency Ratio [2] | SMILES
> 25700 | 30.1 | – | CC[C@H](C)[C@H](NC(=O)C(C)(C)NC(=O)[C@H](CCC(N)=O)NC(=O)[C@@H](NC(=O)[C@](C)(Cc1ccccc1)NC(=O)[C@H](CC(=O)O)NC(=O)[C@H](CCCCNC(=O)COCCOCCNC(=O)COCCOCCNC(=O)CC[C@H](NC(=O)CCCCCCCCCCCCCCCCC(=O)O)C(=O)O)NC(=O)[C@H](C)NC(=O)[C@H](C)NC(=O)[C@H](CCCNC(=N)N)NC(=O)[C@H](CO)NC(=O)[C@H](CC(=O)O)NC(=O)[C@H](CC(C)C)NC(=O)[C@](C)(Cc1ccccc1)NC(=O)[C@H](CCCCN)NC(=O)[C@H](CO)NC(=O)[C@@H](NC(=O)[C@H](CC(=O)O)NC(=O)[C@H](CO)NC(=O)[C@@H](NC(=O)[C@](C)(Cc1ccccc1)NC(=O)[C@H](CO)NC(=O)CNC(=O)[C@H](CCC(N)=O)NC(=O)C1(NC(=O)[C@@H](N)Cc2c[nH]cn2)CC1)[C@@H](C)O)C(C)C)C(C)C)C(=O)N[C@@H](C)C(=O)N[C@@H](CC(N)=O)C(=O)N[C@H](C(N)=O)[C@@H](C)O [Peptide 327] (H-H[Ac3c]QGS[αMeF]TSDVSK[αMeF]LDSRAAK([AEEA-AEEA-γGlu-C18 diacid])D[αMeF]VQ[Aib]IANT-NH2)
1700 | 15.4 | 218.8 | CC[C@H](C)[C@H](NC(=O)C(C)(C)NC(=O)[C@H](CCC(N)=O)NC(=O)[C@@H](NC(=O)[C@](C)(Cc1ccccc1)NC(=O)[C@H](CC(=O)O)NC(=O)[C@H](CCCCNC(=O)COCCOCCNC(=O)COCCOCCNC(=O)CC[C@H](NC(=O)CCCCCCCCCCCCCCCCC(=O)O)C(=O)O)NC(=O)[C@H](C)NC(=O)[C@H](C)NC(=O)[C@H](CCCNC(=N)N)NC(=O)[C@H](CO)NC(=O)[C@H](CC(=O)O)NC(=O)[C@H](CC(C)C)NC(=O)[C@](C)(Cc1ccccc1)NC(=O)[C@H](CCCCN)NC(=O)[C@H](CO)NC(=O)[C@@H](NC(=O)[C@H](CC(=O)O)NC(=O)[C@H](CO)NC(=O)[C@@H](NC(=O)[C@](C)(Cc1ccccc1)NC(=O)[C@H](CO)NC(=O)CNC(=O)[C@H](CCC(N)=O)NC(=O)C1(NC(=O)[C@@H](N)Cc2c[nH]cn2)CCC1)[C@@H](C)O)C(C)C)C(C)C)C(=O)N[C@@H](C)C(=O)N[C@@H](CC(N)=O)C(=O)N[C@H](C(N)=O)[C@@H](C)O [Peptide 328] (H-H[Ac4c]QGS[αMeF]TSDVSK[αMeF]LDSRAAK([AEEA-AEEA-γGlu-C18 diacid])D[αMeF]VQ[Aib]IANT-NH2; N-terminus assumed)
> 25600 | 488 | – | CC[C@H](C)[C@H](NC(=O)C(C)(C)NC(=O)[C@H](CCC(N)=O)NC(=O)[C@@H](NC(=O)[C@](C)(Cc1ccccc1)NC(=O)[C@H](CC(=O)O)NC(=O)[C@H](CCCCNC(=O)COCCOCCNC(=O)COCCOCCNC(=O)CC[C@H](NC(=O)CCCCCCCCCCCCCCCCC(=O)O)C(=O)O)NC(=O)[C@H](C)NC(=O)[C@H](C)NC(=O)[C@H](CCCNC(=N)N)NC(=O)[C@H](CO)NC(=O)[C@H](CC(=O)O)NC(=O)[C@H](CC(C)C)NC(=O)[C@](C)(Cc1ccccc1)NC(=O)[C@H](CCCCN)NC(=O)[C@H](CO)NC(=O)[C@@H](NC(=O)[C@H](CC(=O)O)NC(=O)[C@H](CO)NC(=O)[C@@H](NC(=O)[C@](C)(Cc1ccccc1)NC(=O)[C@H](CO)NC(=O)CNC(=O)[C@H](CCC(N)=O)NC(=O)[C@@H](CO)NC(=O)[C@@H](N)Cc1c[nH]cn1)[C@@H](C)O)C(C)C)C(C)C)C(=O)N[C@@H](C)C(=O)N[C@@H](CC(N)=O)C(=O)N[C@H](C(N)=O)[C@@H](C)O [Peptide 330] (H-H[dS]QGS[αMeF]TSDVSK[αMeF]LDSRAAK([AEEA-AEEA-γGlu-C18 diacid])D[αMeF]VQ[Aib]IANT-NH2)
66.6 | 62.6 | 2.1 | CC(C)C[C@H](NC(=O)[C@H](Cc1c[nH]c2ccccc12)NC(=O)[C@H](CCCNC(=N)N)NC(=O)[C@@H](NC(=O)[C@H](Cc1ccccc1)NC(=O)[C@H](CC(=O)O)NC(=O)[C@H](CCCCNC(=O)COCCOCCNC(=O)COCCOCCNC(=O)CC[C@H](NC(=O)CCCCCCCCCCCCCCCCC(=O)O)C(=O)O)NC(=O)[C@H](C)NC(=O)[C@H](CCCNC(=N)N)NC(=O)[C@H](CCCNC(=N)N)NC(=O)[C@H](CO)NC(=O)[C@H](CC(=O)O)NC(=O)[C@H](CC(C)C)NC(=O)[C@](C)(Cc1ccccc1)NC(=O)[C@H](CCCCN)NC(=O)[C@H](CO)NC(=O)[C@@H](NC(=O)[C@H](CC(=O)O)NC(=O)[C@H](CO)NC(=O)[C@@H](NC(=O)[C@H](Cc1ccccc1)NC(=O)[C@@H](NC(=O)CNC(=O)[C@H](CCC(N)=O)NC(=O)C(C)(C)NC(=O)[C@@H](N)Cc1c[nH]cn1)[C@@H](C)O)[C@@H](C)O)C(C)C)C(C)C)C(=O)N[C@@H](CC(C)C)C(=O)N[C@@H](CCC(=O)O)C(=O)NC(C)(C)C(=O)NCC(=O)O [Peptide 331]
58.9 | 77.5 | 1.5 | CC(C)C[C@H](NC(=O)[C@H](Cc1c[nH]c2ccccc12)NC(=O)[C@H](CCC(N)=O)NC(=O)[C@@H](NC(=O)[C@H](Cc1ccccc1)NC(=O)[C@H](CC(=O)O)NC(=O)[C@H](CCCCNC(=O)COCCOCCNC(=O)COCCOCCNC(=O)CC[C@H](NC(=O)CCCCCCCCCCCCCCCCC(=O)O)C(=O)O)NC(=O)[C@H](C)NC(=O)[C@H](CCCNC(=N)N)NC(=O)[C@H](CCCNC(=N)N)NC(=O)[C@H](CO)NC(=O)[C@H](CC(=O)O)NC(=O)[C@H](CC(C)C)NC(=O)[C@](C)(Cc1ccccc1)NC(=O)[C@H](CCCCN)NC(=O)[C@H](CO)NC(=O)[C@@H](NC(=O)[C@H](CC(=O)O)NC(=O)[C@H](CO)NC(=O)[C@@H](NC(=O)[C@H](Cc1ccccc1)NC(=O)[C@@H](NC(=O)CNC(=O)[C@H](CCC(N)=O)NC(=O)C(C)(C)NC(=O)[C@@H](N)Cc1c[nH]cn1)[C@@H](C)O)[C@@H](C)O)C(C)C)C(C)C)C(=O)N[C@@H](CC(C)C)C(=O)N[C@@H](CCC(=O)O)C(=O)NC(C)(C)C(=O)NCC(=O)O [Peptide 332]
213 | 135 | 3.1 | CC(C)C[C@H](NC(=O)[C@H](Cc1c[nH]c2ccccc12)NC(=O)[C@H](CCC(N)=O)NC(=O)[C@@H](NC(=O)[C@H](Cc1ccccc1)NC(=O)[C@H](CC(=O)O)NC(=O)[C@H](CCCCNC(=O)COCCOCCNC(=O)COCCOCCNC(=O)CC[C@H](NC(=O)CCCCCCCCCCCCCCCCC(=O)O)C(=O)O)NC(=O)[C@H](C)NC(=O)[C@H](CCCNC(=N)N)NC(=O)[C@H](CCCNC(=N)N)NC(=O)[C@H](CO)NC(=O)[C@H](CC(=O)O)NC(=O)[C@H](CC(C)C)NC(=O)[C@](C)(Cc1ccccc1)NC(=O)[C@H](CCCCN)NC(=O)[C@H](CO)NC(=O)[C@@H](NC(=O)[C@H](CC(=O)O)NC(=O)[C@H](CO)NC(=O)[C@@H](NC(=O)[C@H](Cc1ccccc1)NC(=O)[C@@H](NC(=O)CNC(=O)[C@H](CCC(N)=O)NC(=O)C(C)(C)NC(=O)[C@@H](N)Cc1c[nH]cn1)[C@@H](C)O)[C@@H](C)O)C(C)C)C(C)C)C(=O)N[C@@H](CC(C)C)C(=O)NC(C)(C)C(=O)N[C@H](C(=O)N[C@@H](CCC(=O)O)C(=O)O)[C@@H](C)O [Peptide 333]
462 | 250 | 3.7 | CC(C)C[C@H](NC(=O)[C@H](Cc1c[nH]c2ccccc12)NC(=O)[C@H](CCC(N)=O)NC(=O)[C@@H](NC(=O)[C@H](Cc1ccccc1)NC(=O)[C@H](CC(=O)O)NC(=O)[C@H](CCCCNC(=O)CC[C@H](NC(=O)CCCCCCCCCCCCCCCCC(=O)O)C(=O)O)NC(=O)[C@H](C)NC(=O)[C@H](CCCNC(=N)N)NC(=O)[C@H](CCCNC(=N)N)NC(=O)[C@H](CO)NC(=O)[C@H](CC(=O)O)NC(=O)[C@H](CC(C)C)NC(=O)[C@](C)(Cc1ccccc1)NC(=O)[C@H](CCCCN)NC(=O)[C@H](CO)NC(=O)[C@H](Cc1ccc(O)cc1)NC(=O)[C@H](CC(=O)O)NC(=O)[C@H](CO)NC(=O)[C@@H](NC(=O)[C@H](Cc1ccccc1)NC(=O)[C@@H](NC(=O)CNC(=O)[C@H](CCC(N)=O)NC(=O)C(C)(C)NC(=O)[C@@H](N)Cc1c[nH]cn1)[C@@H](C)O)[C@@H](C)O)C(C)C)C(=O)N[C@@H](C)C(=O)NC(C)(C)C(=O)N[C@@H](CCC(=O)O)C(=O)O [Peptide 334]
312 | 1060 | 0.6 | CC(C)C[C@H](NC(=O)[C@H](Cc1c[nH]c2ccccc12)NC(=O)[C@H](CCC(N)=O)NC(=O)[C@@H](NC(=O)[C@H](Cc1ccccc1)NC(=O)[C@H](CC(=O)O)NC(=O)[C@H](CCCCNC(=O)CC[C@H](NC(=O)CCCCCCCCCCCCCCCCC(=O)O)C(=O)O)NC(=O)[C@H](C)NC(=O)[C@H](CCCNC(=N)N)NC(=O)[C@H](CCCNC(=N)N)NC(=O)[C@H](CO)NC(=O)[C@H](CC(=O)O)NC(=O)[C@H](CC(C)C)NC(=O)[C@](C)(Cc1ccccc1)NC(=O)[C@H](CCCCN)NC(=O)[C@H](CO)NC(=O)[C@H](Cc1ccc(O)cc1)NC(=O)[C@H](CC(=O)O)NC(=O)[C@H](CO)NC(=O)[C@@H](NC(=O)[C@H](Cc1ccccc1)NC(=O)[C@@H](NC(=O)CNC(=O)[C@H](CCC(N)=O)NC(=O)C(C)(C)NC(=O)[C@@H](N)Cc1c[nH]cn1)[C@@H](C)O)[C@@H](C)O)C(C)C)C(=O)N[C@@H](CC(C)C)C(=O)N[C@@H](CCC(=O)O)C(=O)NC(C)(C)C(=O)NCC(=O)O [Peptide 335]
